Experimental data from patent US8507411B2, “Neoglycorandomization and digitoxin analogs” (priority 2004, dated 2013).
Like-named read-outs stand apart in the source and are kept apart here.

How the values were obtained:
NCI/ADR-RES [1] = assay: Cell titer-glo cytotoxicity assay, NCI/ADR-RES; assay type: cell-based, human
Description: (§1) FIG. 7 is a graphical summary of the results of the IC50 data from cytotoxicity assays. […] In the assay, live cells are quantified by measuring the luminescent signal resulting from the reaction between cellular ATP and luciferin to form oxyluciferin. The IC50 value for each compound represents at least four replicates of dose-response experiments conducted over six concentrations at two-fold dilutions.
(§2) The anticancer activities of ten panel analogues (3a-c,e,f and 4a-c,e,f) and digitoxin (1) were assessed using a high-throughput cytotoxicity assay on four human cancer cell lines, (FIG. 7) representing lung, colorectal, and ovarian carcinomas, as well as NCI/ADR-RES, a drug-resistant ovarian carcinoma line (For years, NCI/ADR-RES cells have been misidentified as drug-resistant MCF-7 breast adenocarcinoma cells, but recently this line has been shown definitively to be a drug-resistant line derived from OVCAR-8 ovarian adenocarcinoma cells. Liscovitch, M. et al., Cancer Lett. (2007) 245, 350-352.
(§3) All cell lines were maintained as previously reported (Langenhan, J. M. et al., Proc. Natl. Acad. Sci. (2005) 102, 12305-12310.) Cells were harvested by trypsinization using 0.25% trypsin and 0.1% EDTA and then counted in a Cellometer Auto T4 cell counter (Nexcelom, inc), before dilution for assay plating. Cell plating, compound handling and assay set up were performed as previously reported^1 except for the cells were plated in 50 μL volumes in 384 well clear bottom, tissue culture plates (Corning-Costar, Inc). Compounds were added from the 384-well compound stock plates at a 1:100 dilution using a Biomek FX liquid handler equipped with a 384 channel head (Beckman Coulter, Inc.). Cell titer-glo reagent (15 μL) (Promega Corporation, Inc.) was added and incubated for 10 min at room temperature with gentle agitation to lyse the cells. Each plate was read for luminescence. […] IC50 values were determined using XLFit 4.0 as previously reported (see Table 7).

NCI-H460 = assay: High-throughput calcein AM cytotoxicity assay, NCI-H460; assay type: cell-based, human; conditions: read-out: IC50, NCI-H460
Description: (§4) Standard errors are depicted with error bars.

NmuMG = assay: cells; assay type: cell-based, mouse; conditions: read-out: IC50, NmuMG
Summary of the method: (§5)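 RPMI 1640 + 10% FBS (NmuMG: DMEM + 10% FBS + insulin); 10–15k cells/well, 1 h attach; 5-pt 2-fold dose series, 72 h; PBS wash, calcein AM 30 min 37 °C; ex485/em535; 4-PL fit, n ≥ 6.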

SKOV-3 = assay: Cell titer-glo cytotoxicity assay, SKOV-3; assay type: cell-based, human
Description: as §1, §2, §3

SK-OV-3 = assay: cells; assay type: cell-based, human
Summary of the method: as §5

SF-268 = assay: cells; assay type: cell-based, human
Summary of the method: as §5

NCI/ADR-RES [2] = assay: cells; assay type: cell-based, human
Summary of the method: as §5

MCF7 = assay: High-throughput calcein AM cytotoxicity assay, MCF7; assay type: cell-based, human; conditions: read-out: IC50, MCF7
Description: as §4

Du145 = assay: High-throughput calcein AM cytotoxicity assay, Du145; assay type: cell-based, human; conditions: read-out: IC50, Du145
Description: as §4

[3] = NmuMG mouse mammary normal epithelial control line
[4] = SKOV-3, Cell titer-glo, read-out: IC50
[5] = SK-OV-3 cells, read-out: IC50, SK-OV-3
[6] = SF-268 cells, read-out: IC50, SF-268
[7] = NCI/ADR-RES cells, read-out: IC50, NCI/ADR-RES

C[C@H]1O[C@@H](O[C@H]2[C@@H](O)C[C@H](O[C@H]3[C@@H](O)C[C@H](O[C@H]4CC[C@@]5(C)[C@H](CC[C@@H]6[C@@H]5CC[C@]5(C)[C@@H](C7=CC(=O)OC7)CC[C@]65O)C4)O[C@@H]3C)O[C@@H]2C)C[C@H](O)[C@@H]1O [digitoxin]
IC50 (NCI/ADR-RES [1]; Homo sapiens): 69 nM
IC50 (NCI-H460; Homo sapiens, NCI-H460, NCI-H460 cells): 280 nM
IC50 (NmuMG; Mus musculus): > 25000 nM
IC50 (SKOV-3; Homo sapiens, SK-OV-3): > 1000 nM
IC50 (SK-OV-3; Homo sapiens, SK-OV-3, read-out: IC50, SK-OV-3): 700 nM
IC50 (SF-268; Homo sapiens, SF-268, read-out: IC50, SF-268): 1500 nM
IC50 (NCI/ADR-RES [2]; Homo sapiens, NCI/ADR-RES, read-out: IC50, NCI/ADR-RES): 220 nM
IC50 (MCF7; Homo sapiens, MCF7, MCF7 cells): 320 nM
IC50 (Du145; Homo sapiens, DU-145, Du145 cells): 260 nM

CON([C@H]1CC[C@@]2(C)[C@H](CC[C@@H]3[C@@H]2CC[C@]2(C)[C@@H](C4=CC(=O)OC4)CC[C@]32O)C1)[C@H]1OC[C@H](O)[C@@H](O)[C@@H]1O [23β, L-xyloside]
IC50 (NCI/ADR-RES [1]; Cell titer-glo, read-out: IC50): 72 nM
IC50 (NCI-H460; NCI-H460 cells): 80 nM
IC50 (NmuMG; [3]): 57 nM
IC50 (SKOV-3; [4]): > 1000 nM
IC50 (SK-OV-3; [5]): 220 nM
IC50 (SF-268; [6]): 490 nM
IC50 (NCI/ADR-RES [2]; [7]): 138 nM
IC50 (MCF7; MCF7 cells): 230 nM
IC50 (Du145; Du145 cells): 620 nM

CON([C@H]1CC[C@@]2(C)[C@H](CC[C@@H]3[C@@H]2CC[C@]2(C)[C@@H](C4=CC(=O)OC4)CC[C@]32O)C1)[C@H]1OC[C@H](O)[C@H](O)[C@@H]1O [5β, L-riboside]
IC50 (NCI/ADR-RES [1]; Cell titer-glo, read-out: IC50): 45 nM
IC50 (NCI-H460; NCI-H460 cells): 53 nM
IC50 (NmuMG; [3]): 31 nM
IC50 (SKOV-3; [4]): > 1000 nM
IC50 (SK-OV-3; [5]): 45 nM
IC50 (SF-268; [6]): 230 nM
IC50 (NCI/ADR-RES [2]; [7]): 32 nM
IC50 (MCF7; MCF7 cells): 190 nM
IC50 (Du145; Du145 cells): 300 nM

CON([C@H]1CC[C@@]2(C)[C@H](CC[C@@H]3[C@@H]2CC[C@]2(C)[C@@H](C4=CC(=O)OC4)CC[C@]32O)C1)[C@@H]1O[C@H](CO)[C@@H](O)[C@H](O)[C@@H]1O [27β, D-mannoside]
IC50 (NCI-H460; NCI-H460 cells): 700 nM
IC50 (NmuMG; [3]): 1000 nM
IC50 (SK-OV-3; [5]): 800 nM
IC50 (SF-268; [6]): 2200 nM
IC50 (NCI/ADR-RES [2]; NCI/ADR-RES, 72 h, calcein AM, read-out: IC50): 100 ± 10 nM
IC50 (MCF7; MCF7 cells): 1700 nM
IC50 (Du145; Du145 cells): 1300 nM
